According to patent publication US20230284618A1, “HERBICIDAL COMBINATIONS” (UPL Corporation Limited, priority 2022, published 2023):

Columns and labels:
Assay type in all cases: in vivo
Common Ragweed = test: Pre-emergence bio-efficacy, weed control 27 DAT; conditions: 27 days after treatment, G ai: imazamox 105, rimsulfuron 70, pendimethalin 4270, mesotrione 210
Protocol: (§1) Experiments were carried out to evaluate the bio-efficacy of the herbicidal combinations according to the present disclosure. The herbicides were applied at the pre-emergence stage. The results have been disclosed in Tables 1-5.
(§2) Weeds: Giant Foxtail, Common Ragweed, Galinsoga, Yellow Nutsedge

Galinsoga = test: Pre-emergence bio-efficacy, weed control 27 DAT; conditions: 27 days after treatment, G ai: imazamox 105, rimsulfuron 70, pendimethalin 4270, mesotrione 210
Protocol: as §1, §2

Giant Foxtail = test: Pre-emergence bio-efficacy, weed control 27 DAT; conditions: 27 days after treatment, G ai: imazamox 105, rimsulfuron 70, pendimethalin 4270, mesotrione 210
Protocol: as §1, §2

Yellow Nutsedge = test: Pre-emergence bio-efficacy, weed control 27 DAT; conditions: 27 days after treatment, G ai: imazamox 105, rimsulfuron 70, pendimethalin 4270, mesotrione 210
Protocol: as §1, §2

Dandelion = test: Pre-emergence bio-efficacy, weed control 85 DAT; conditions: 85 days after treatment, G ai: imazamox 105, rimsulfuron 70, pendimethalin 4270, mesotrione 210
Protocol: as §1
(§3) Weeds: Common Velvetgrass, Broadleaf spp., Red Sorrel, Dandelion, Geranium spp.

Geranium spp. = test: Pre-emergence bio-efficacy, weed control 85 DAT; conditions: 85 days after treatment, G ai: imazamox 105, rimsulfuron 70, pendimethalin 4270, mesotrione 210
Protocol: as §1, §3

Red Sorrel = test: Pre-emergence bio-efficacy, weed control 85 DAT; conditions: 85 days after treatment, G ai: imazamox 105, rimsulfuron 70, pendimethalin 4270, mesotrione 210
Protocol: as §1, §3

| SMILES | Control 27 DAT (%) Common Ragweed (Common Ragweed) | Control 27 DAT (%) Galinsoga (Galinsoga) | Control 27 DAT (%) Giant Foxtail (Giant Foxtail) | Control 27 DAT (%) Yellow Nutsedge (Yellow Nutsedge) | Control 85 DAT (%) Dandelion (Dandelion) | Control 85 DAT (%) Geranium spp. (Geranium spp.) | Control 85 DAT (%) Red Sorrel (Red Sorrel) |
| --- | --- | --- | --- | --- | --- | --- | --- |
| COCc1cnc(C2=NC(C)(C(C)C)C(=O)N2)c(C(=O)O)c1 (stereo not shown) [Imazamox] | 63% | 53% | 58% | 40% | 5% | 8% | 13% |
| CS(=O)(=O)c1ccc(C(=O)C2C(=O)CCCC2=O)c([N+](=O)[O-])c1 [Mesotrione] | – | – | – | – | 8% | 5% | 8% |
| CCC(CC)Nc1c([N+](=O)[O-])cc(C)c(C)c1[N+](=O)[O-] [Pendimethalin] | – | – | – | – | 20% | 18% | 15% |
| CCS(=O)(=O)c1cccnc1S(=O)(=O)NC(=O)Nc1nc(OC)cc(OC)n1 [Rimsulfuron] | – | – | – | – | 45% | 28% | 18% |
